Measurements: patent publication US10227344B2, “CK2 inhibitors, compositions and methods thereof” (Polaris Pharmaceuticals, Inc., priority 2016, dated 2019)
pIC50: −log10 of the molar value.

What was measured:
Type in all cases: cell-based
PC3 = test: Cancer cell panel, cell viability (resazurin): Prostate, PC3; conditions: Homo sapiens, PC-3, 72 hours, single agent, read-out: Example 3 IC50
Mia-Paca-2 = test: Cancer cell panel, cell viability (resazurin): Pancreatic, Mia-Paca-2; conditions: Homo sapiens; Mia-Paca-2 (Pancreatic), 72 hours, single agent; read-out: Example 3 IC50
Procedure: (§1) Cells were plated in 96-well plates and treated for 72 hours with a serially diluted CK2 inhibitor or anti-cancer drug or their combination. The suspension cell lines were treated right after plating, while the adherent cells were allowed to attach overnight prior to the start of the treatment.
(§2) Cell viability was determined by adding resazurin to cell cultures and measuring fluorescence with a plate reader. Relative cell viability was calculated by dividing the cell viability signal from a test sample by that of a non-treated control. […] Bliss Independence and Highest Single Agent models were used to determine if there is synergy, additivity or antagonism between the CK2 inhibitor and an anti-cancer drug.

HT29 = test: Cancer cell panel, cell viability (resazurin): Colon, HT29; conditions: Homo sapiens, HT-29, 72 hours, single agent, read-out: Example 3 IC50
Colo205 = test: Cancer cell panel, cell viability (resazurin): Colon, Colo205; conditions: Homo sapiens, COLO 205, 72 hours, single agent, read-out: Example 3 IC50
Procedure: as §1, §2

DLD-1 = test: Cancer cell panel, cell viability (resazurin): Colon, DLD-1; conditions: Homo sapiens; DLD-1 (Colon), 72 hours, single agent; read-out: Example 3 IC50
H1299 = test: Cancer cell panel, cell viability (resazurin): NSCLC, H1299; conditions: Homo sapiens, NCI-H1299, 72 hours, single agent, read-out: Example 3 IC50
H460 = test: Cancer cell panel, cell viability (resazurin): NSCLC, H460; conditions: Homo sapiens, NCI-H460, 72 hours, single agent, read-out: Example 3 IC50
H1975 = test: Cancer cell panel, cell viability (resazurin): NSCLC, H1975; conditions: Homo sapiens, NCI-H1975, 72 hours, single agent, read-out: Example 3 IC50
MDA-MB-231 = test: Cancer cell panel, cell viability (resazurin): Breast, MDA-MB-231; conditions: Homo sapiens; MDA-MB-231 (Breast), 72 hours, single agent; read-out: Example 3 IC50
ZR-75-1 = test: Cancer cell panel, cell viability (resazurin): Breast, ZR-75-1; conditions: Homo sapiens; ZR-75-1 (Breast), 72 hours, single agent; read-out: Example 3 IC50
MCF7 = test: Cancer cell panel, cell viability (resazurin): Breast, MCF7; conditions: Homo sapiens, 72 hours, single agent, read-out: Example 3 IC50
ACHN = test: Cancer cell panel, cell viability (resazurin): Renal, ACHN; conditions: Homo sapiens, 72 hours, single agent, read-out: Example 3 IC50
Caki-2 = test: Cancer cell panel, cell viability (resazurin): Renal, Caki-2; conditions: Homo sapiens; Caki-2 (Renal), 72 hours, single agent; read-out: Example 3 IC50
SK-MEL-3 = test: Cancer cell panel, cell viability (resazurin): Melanoma, SK-MEL-3; conditions: Homo sapiens, SK-MEL3; SK-MEL-3 (Melanoma), 72 hours, single agent; read-out: Example 3 IC50
SK-MEL-24 = test: Cancer cell panel, cell viability (resazurin): Melanoma, SK-MEL-24; conditions: Homo sapiens; SK-MEL-24 (Melanoma), 72 hours, single agent; read-out: Example 3 IC50
WM-115 = test: Cancer cell panel, cell viability (resazurin): Melanoma, WM-115; conditions: Homo sapiens; WM-115 (Melanoma), 72 hours, single agent; read-out: Example 3 IC50
U266 = test: Cancer cell panel, cell viability (resazurin): multiple myeloma, U266; conditions: Homo sapiens, U-266, 72 hours, single agent, read-out: Example 3 IC50
RPMI8226 = test: Cancer cell panel, cell viability (resazurin): multiple myeloma, RPMI8226; conditions: Homo sapiens, RPMI-8226, 72 hours, single agent, read-out: Example 3 IC50
Ramos = test: Cancer cell panel, cell viability (resazurin): Burkitt's Lymphoma, Ramos; conditions: Homo sapiens, 72 hours, single agent, read-out: Example 3 IC50
K562 = test: Cancer cell panel, cell viability (resazurin): Leukemia, K562; conditions: Homo sapiens, 72 hours, single agent, read-out: Example 3 IC50

pIC50 (PC3): 6.95 | pIC50 (Mia-Paca-2): 6.60 | pIC50 (HT29): 6.71 | pIC50 (Colo205): 5.95 | pIC50 (DLD-1): 6.24 | pIC50 (H1299): 6.61 | pIC50 (H460): 6.46 | pIC50 (H1975): 6.41 | pIC50 (MDA-MB-231): 6.25 | pIC50 (ZR-75-1): 6.49 | pIC50 (MCF7): 5.74 | pIC50 (ACHN): 6.39 | pIC50 (Caki-2): 6.17 | pIC50 (SK-MEL-3): 6.37 | pIC50 (SK-MEL-24): 5.85 | pIC50 (WM-115): 6.54 | pIC50 (U266): < 5.00 | pIC50 (RPMI8226): 6.63 | pIC50 (Ramos): 6.51 | pIC50 (K562): 6.33
Structure (SMILES): C[S@+]([O-])Cc1cc(Nc2cc(NC3CC3)n3ncc(C#N)c3n2)ccc1Cl [Example 3, (S)(+)-5-((4-Chloro-3-((methylsulfinyl)methyl)phenyl)amino)-7-(cyclopropylamino)pyrazolo[1,5-a]pyrimidine-3-carbonitrile]
